Measurements from publication PMC8187479, “Sugar phosphate activation of the stress sensor eIF2B” (Nature Communications, 2021).
Peptide text beside a SMILES is read from it.

Target: T1, eIF2Bα (Homo sapiens, UniProt Q14232)
T1 construct: made in house; host or cells: E. coli BL21(DE3)
T1 sequence (Q14232 1-305): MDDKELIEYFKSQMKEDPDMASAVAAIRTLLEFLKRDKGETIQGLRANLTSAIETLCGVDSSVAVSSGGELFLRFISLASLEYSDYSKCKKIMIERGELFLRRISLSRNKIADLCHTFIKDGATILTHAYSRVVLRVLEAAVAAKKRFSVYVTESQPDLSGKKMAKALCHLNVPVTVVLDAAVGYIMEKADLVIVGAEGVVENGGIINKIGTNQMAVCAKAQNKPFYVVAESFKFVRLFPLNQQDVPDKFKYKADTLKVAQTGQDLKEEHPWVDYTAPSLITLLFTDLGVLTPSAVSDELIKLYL
Experiment: MIDAS (mass spectrometry integrated with equilibrium dialysis) metabolite binding screen
Details: MIDAS metabolite binding screen with eIF2Bα; sheet "eIF2Ba"
Outline: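 Hits called at Storey q < 0.1 on z-scores of PCA-corrected log2 fold change between protein and metabolite chambers, quantified by FIA-MS in triplicate.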

Structure (SMILES) | log2(corrected fold change)
O=C(O)CCCCCCCCCCC(=O)O [Dodecanedioic acid] | 0.00577
CNC[C@H](O)c1ccc(O)c(O)c1 [Epinephrine] | -0.04113
NCCO [Ethanolamine] | 0.0208
CCC(C(=O)O)C(=O)O [Ethylmalonic acid] | -0.03876
Cc1cc2nc3c(=O)[nH]c(=O)nc-3n(C[C@H](O)[C@H](O)[C@H](O)COP(=O)(O)OP(=O)(O)OC[C@H]3O[C@@H](n4cnc5c(N)ncnc54)[C@H](O)[C@@H]3O)c2cc1C [Flavin adenine dinucleotide] | -0.0588
Nc1nc(=O)c2nc(CNc3ccc(C(=O)N[C@@H](CCC(=O)O)C(=O)O)cc3)cnc2[nH]1 [Folic acid] | -0.02054
OC[C@H]1O[C@H](OC2[C@@H](O)[C@H](O)C(O)[C@H](O)[C@@H]2O)[C@H](O)[C@@H](O)[C@H]1O (some centres unmarked) [Galactinol] | -0.02052
O=C1O[C@H](CO)[C@@H](O)[C@H](O)[C@H]1O [Glucono delta-lactone] | 0.01629
O=C(O)CCCC(=O)O [Glutaric acid] | -0.03876
O=C(O)CO [Glycolic acid] | -0.06864
O=CC(=O)O [Glyoxylate] | -0.02095
Nc1nc2c(ncn2[C@@H]2O[C@H](COP(=O)(O)OP(=O)(O)O)[C@@H](O)[C@H]2O)c(=O)[nH]1 [Guanosine 5-diphosphate] | -0.07145
Nc1nc2c(ncn2[C@@H]2O[C@H](COP(=O)(O)OP(=O)(O)O[C@H]3O[C@H](CO)[C@@H](O)[C@H](O)[C@@H]3O)[C@@H](O)[C@H]2O)c(=O)[nH]1 [Guanosine diphosphate mannose] | 0.001828
Nc1nc2c(ncn2[C@@H]2O[C@H](CO)[C@@H](O)[C@H]2O)c(=O)[nH]1 [Guanosine] | 0.01196
O=C(O)CNC(=O)c1ccccc1 [Hippuric acid] | 0.07626
COc1cc(CC(=O)O)ccc1O [Homovanillic acid] | -0.006498
O=C(O)C(=O)CO [Hydroxypyruvate] | -0.04906
CC(C)CC(=O)SCCNC(=O)CCNC(=O)[C@H](O)C(C)(C)COP(=O)(O)OP(=O)(O)OC[C@H]1O[C@@H](n2cnc3c(N)ncnc32)[C@H](O)[C@@H]1OP(=O)(O)O [Isovaleryl coenzyme A] | 0.1853
O=C(O)CCC(=O)C(=O)O [Ketoglutaric acid] | 0.06742
C[C@H](N)C(=O)O [L-Alanine] | 0.0004222

Structure (SMILES) | log2(corrected fold change)
CC[C@@H](C)[C@H](N)C(=O)O [L-Alloisoleucine] | -0.00688
O=C[C@H](O)[C@@H](O)[C@@H](O)CO [L-Arabinose_1] | 0.02262
NCCC(=O)N[C@@H](Cc1cnc[nH]1)C(=O)O [L-Carnosine] | -0.01554
NC(=O)NCCC[C@H](N)C(=O)O [L-Citrulline] | -0.01086
N[C@@H](CCSC[C@H](N)C(=O)O)C(=O)O [L-Cystathionine] | -0.03443
N[C@@H](CS(=O)(=O)O)C(=O)O [L-Cysteic acid] | 0.001606
N[C@@H](CSSC[C@H](N)C(=O)O)C(=O)O [L-Cystine] | 0.04101
C[C@@H]1O[C@H](OP(=O)(O)O)[C@@H](O)[C@H](O)[C@@H]1O [L-Fucose 1-phosphate] | -0.0359
C[C@H](O)[C@@H](O)[C@@H](O)[C@H](O)C=O [L-Fucose] | -0.06063
O=C1O[C@H]([C@@H](O)CO)[C@H](O)[C@@H]1O [L-Gulonic acid gamma-lactone] | 0.02733
O=C(O)CC[C@H](O)C(=O)O [L-Hydroxyglutaric acid] | -0.0058
CC[C@H](C)[C@H](N)C(=O)O [L-Isoleucine] | -0.00688
C[C@H](O)C(=O)O [L-Lactic acid] | -0.02892
CC(C)C[C@H](N)C(=O)O [L-Leucine] | -0.00688
O=C(O)C[C@H](O)C(=O)O [L-Malic acid] | -0.01079
N[C@@H](Cc1ccccc1)C(=O)O [L-Phenylalanine] | -0.04409
N[C@@H](CCCCN[C@@H](CCC(=O)O)C(=O)O)C(=O)O [L-Saccharopine] | -0.0272
N[C@@H](CO)C(=O)O [L-Serine] | -0.04824
C[C@@H](O)[C@H](N)C(=O)O [L-Threonine] | -0.05619
C[N+](C)(C)CCOP(=O)([O-])OC[C@H](O)CO [L-alpha-Glycerophosphorylcholine] | 0.1951

Same assay, conditions: MIDAS screen, sheet eIF2Ba; metabolites screened in pools 1-4; p-value and q-value given

Structure (SMILES) | log2(corrected fold change)
Nc1nc2c(c(=O)[nH]1)N=C(CNc1ccc(C(=O)N[C@@H](CCC(=O)O)C(=O)O)cc1)CN2 [Dihydrofolic acid] | -0.03543
CC1CNC(=O)NC1=O (centres unmarked) [Dihydrothymine] | -0.08021
O=C1CCNC(=O)N1 [Dihydrouracil] | -0.08721
CN(C)c1ncnc2nc[nH]c12 [Dimethylaminopurine] | -0.08009
OC[C@@H](O)[C@H](O)[C@H](O)[C@@H](O)CO [Dulcitol] | -0.4944
Nc1nc(=O)c2c([nH]1)NC[C@@H](CNc1ccc(C(=O)N[C@@H](CCC(=O)O)C(=O)O)cc1)N2C=O [Folinic acid] | 0.129
N[C@@H](CCC(=O)N[C@@H](CS)C(=O)O)C(=O)O [Gamma-Glu-Cys] | 0.1652
O=C(CO)COP(=O)(O)O [Glycerone phosphate] | 0.09175
NC(N)=NCC(=O)O [Guanidineacetic acid] | 0.1469
Nc1nc2nc[nH]c2c(=O)[nH]1 [Guanine] | 0.2851
Nc1nc2c(ncn2[C@@H]2O[C@H](COP(=O)(O)O)[C@@H](O)[C@H]2O)c(=O)[nH]1 [Guanosine 5-monophosphate] | 1.415
Nc1nc2c(ncn2[C@@H]2O[C@H](COP(=O)(O)OP(=O)(O)OP(=O)(O)O)[C@@H](O)[C@H]2O)c(=O)[nH]1 [Guanosine 5-triphosphate] | 0.3966
NCCc1c[nH]cn1 [Histamine] | 0.1325
NC(=O)NCCCC[C@H](N)C(=O)O [Homocitrulline] | 0.1565
O=C(O)Cc1cc(O)ccc1O [Homogentisic acid] | -0.08584
NCCS(=O)O [Hypotaurine] | 0.03998
O=c1[nH]cnc2nc[nH]c12 [Hypoxanthine] | 0.136
O=c1[nH]cnc2c1ncn2[C@@H]1O[C@H](COP(=O)(O)OP(=O)(O)OP(=O)(O)O)[C@@H](O)[C@H]1O [Inosine 5-triphosphate] | -0.2055
O=c1[nH]cnc2c1ncn2[C@@H]1O[C@H](CO)[C@@H](O)[C@H]1O [Inosine] | 0.3045
CC(C)C(=O)NCC(=O)O [Isobutyrylglycine] | -0.09012

Structure (SMILES) | log2(corrected fold change)
OC[C@H]1O[C@H](OC[C@H]2OC(O)[C@H](O)[C@@H](O)[C@@H]2O)[C@H](O)[C@@H](O)[C@@H]1O (some centres unmarked) [Isomaltose] | -0.3372
CC[C@H](N)C(=O)O [L-2-Aminobutyric acid] | -0.1029
O[C@@H]1[C@@H](O)[C@@H](O)CO[C@H]1O [L-Arabinose] | -0.1354
NC(=O)C[C@H](N)C(=O)O [L-Asparagine] | 0.07649
N[C@@H](CC(=O)O)C(=O)O [L-Aspartate] | 0.03257
N[C@@H](CS)C(=O)O [L-Cysteine] | -0.1221
O=C1C[C@@H](C(=O)O)NC(=O)N1 [L-Dihydroorotic acid] | -0.07946
N[C@@H](CCC(=O)O)C(=O)O [L-Glutamic acid] | -0.006334
NC(=O)CC[C@H](N)C(=O)O [L-Glutamine] | 0.1976
N[C@@H](Cc1c[nH]cn1)C(=O)O [L-Histidine] | 0.05971
Nc1ccccc1C(=O)C[C@H](N)C(=O)O [L-Kynurenine] | 0.1418
NCCCC[C@H](N)C(=O)O [L-Lysine] | -0.06897
CSCC[C@H](N)C(=O)O [L-Methionine] | 0.06465
O=C(O)[C@@H]1CCCCN1 [L-Pipecolic acid] | -0.07553
O=C(O)[C@@H]1CCCN1 [L-Proline] | -0.05584
O=C(O)[C@@H]1CCC(O)=N1 [L-Pyroglutamic acid] | -0.09309
O=C(CO)[C@@H](O)[C@@H](O)CO [L-Ribulose] | -0.1354
N[C@@H](Cc1c[nH]c2ccccc12)C(=O)O [L-Tryptophan] | 0.08785
CC(C)[C@H](N)C(=O)O [L-Valine] | -0.07845
N[C@@H](CC(=O)O)C(=O)N[C@@H](Cc1ccccc1)C(=O)O [L-a-Aspartyl-L-phenylalanine] (H-Asp-Phe-OH) | -0.1203
